According to patent publication US8795973B2, “Methods for identifying inhibitors of mannan-binding lectin associated serine protease (MASP) proteins and uses thereof” (University of Leceister, priority 2010, dated 2014):
Several values for one entry are separate records, joined by “and”; a condition that tells them apart may be missing. Equal values may be shown once. One block for each molecule: values may come before it.

Columns and labels:
MASP-1 CUB2 = target: T1, MASP-1 CUB2 (Rattus norvegicus, UniProt Q8CHN8); assay: Isothermal titration calorimetry of Ca2+ binding to MASP-1 CUB2; settings: ITC, two independent experiments
T1 construct: MASP-1 CUB2 (residues E165-A277 of the mature polypeptide, isoform 1); made in house; host or cells: E. coli BL21 DE3
T1 sequence (Q8CHN8 189-301): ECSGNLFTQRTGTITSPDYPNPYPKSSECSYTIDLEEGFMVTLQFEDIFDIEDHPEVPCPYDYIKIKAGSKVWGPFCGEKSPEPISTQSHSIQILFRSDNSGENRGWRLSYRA
Protocol: The CUB2 domain was made calcium free by EDTA treatment and dialyzed extensively into 50 mM Tris/HCl, pH 7.4 containing 150 mM NaCl. Freshly prepared 2 mM CaCl2 in the same batch of assay buffer was titrated into CUB2 domain (114 μM) in the cell of a VP-isothermal titration calorimeter (Microcal) equilibrated at 25° C. The data were fitted to a 1:1 binding model using the Origin software supplied by the manufacturer, after subtraction of the heats of dilution of the calcium. Because binding was weak, the experiment was carried out under low ‘c-value’ conditions (where the concentration of the protein in the cell is lower than that of the KD).

[1] = target: T2, MASP-1 binding to immobilized MBL (Rattus norvegicus, UniProt Q8CHN8, H450D/I451D/K449D/R453K/S452D); assay: Surface plasmon resonance inhibition of MASP-1 binding to immobilized MBL; settings: for Inhibition of MBL/MASP-1 binding (in words): full-length MBL/MASP-1 complexes
T2 construct: made in house
T2 sequence (Q8CHN8 25-704 K449D/H450D/I451D/S452D/R453K): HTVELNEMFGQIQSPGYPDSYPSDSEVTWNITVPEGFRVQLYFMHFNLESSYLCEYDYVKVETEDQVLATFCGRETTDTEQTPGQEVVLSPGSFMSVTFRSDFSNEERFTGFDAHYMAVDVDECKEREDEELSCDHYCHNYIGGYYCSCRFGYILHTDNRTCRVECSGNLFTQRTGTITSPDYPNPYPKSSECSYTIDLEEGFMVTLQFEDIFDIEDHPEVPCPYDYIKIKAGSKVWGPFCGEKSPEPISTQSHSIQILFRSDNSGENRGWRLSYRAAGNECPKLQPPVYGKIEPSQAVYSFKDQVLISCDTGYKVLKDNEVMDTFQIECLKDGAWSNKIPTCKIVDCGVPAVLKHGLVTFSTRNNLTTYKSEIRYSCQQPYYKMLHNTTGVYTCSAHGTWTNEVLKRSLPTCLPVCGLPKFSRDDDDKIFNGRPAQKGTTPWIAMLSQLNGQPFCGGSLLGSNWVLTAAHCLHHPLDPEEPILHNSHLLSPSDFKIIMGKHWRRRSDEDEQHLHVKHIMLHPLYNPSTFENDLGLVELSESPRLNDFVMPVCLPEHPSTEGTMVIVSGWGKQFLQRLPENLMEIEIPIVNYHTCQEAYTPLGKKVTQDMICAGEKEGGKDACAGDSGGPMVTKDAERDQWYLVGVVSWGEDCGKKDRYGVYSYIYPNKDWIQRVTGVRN
Protocol: Rat MBL-A (referred to as MBL throughout) was produced as described previously. (Wallis and Drickamer, supra (1999)). MASP-1ent (referred to as MASP-1) is a modified form of rat MASP-1 in which the zymogen cleavage site has been replaced by an enterokinase recognition site (DDDDK; SEQ ID NO: 4). […] (Chen and Wallis (2004)). […] (Persikov et al., J Biol Chem 280:19343-19349 (2005)).
MBL (0.025 mg/ml) was immobilized onto the surface of a GLM sensor chip (˜10,000 response units) at pH 4.5, using amine-coupling chemistry. Binding to CUB2 was measured on a ProteOn® XPR36 (BioRad) in 10 mM Tris/HCl pH 7.4, containing 140 mM NaCl, 5 mM Ca^2+ and 0.005% Tween-20 at 25° C., at a flow rate of 25 μL/min. For inhibition assays, MBL was immobilized on to a CM-5 sensor chip (14,000 response units) and binding was measured on a Biacore® 2000 (GE Healthcare) in 20 mM Tris/HCl pH 7.4, containing 140 mM NaCl, 5 mM Ca^2+, and 0.005% SP-20. MASP-1 (100 nM) was premixed with inhibitor and flowed over the chip surface at a rate of 5 μL/min at 25° C. Changes in response units caused by differences in sample composition were subtracted from all data. To account for changes in ionic strength of the buffer due to the inhibitor, binding was measured in the presence of equivalent concentrations of NaCl.

[2] = system: lectin pathway complement activation; assay: Lectin pathway specific complement activation (Wieslab MBL pathway kit, membrane-attack complex deposition on mannan-coated plates); assay type: biochemical; settings: three independent experiments, read-out: IC50, inhibition of lectin pathway complement activation
Protocol: Lectin pathway specific complement activation was measured using the Wieslab® MBL pathway kit (Euro-Diagnostica), which measures deposition of the membrane attack complexes on a mannan-coated plate. The lectin pathway is functional, even under conditions of high ionic strength (1M NaCl). (Petersen et al., J Immunol Methods 257:107-116 (2001)).

MBL = MBL (Rattus norvegicus, UniProt P19999); settings: read-out: Affinity of full-size MASP-1 binding to MBL; cited from earlier work

Kd (MASP-1 CUB2; single Ca2+ site model, 25° C.): 0.49 mM and 0.5 mM
ΔH of Ca2+ binding to MASP-1 CUB2 (MASP-1 CUB2): -4.6 ± 0.6 kJ/mol
Molecule: [Ca+2].[Cl-].[Cl-] [Ca^2+, CaCl2]

Molecule: [Cl-].[Na+] [NaCl]
Binding of MASP-1 to MBL, % of maximal ([1]; ionic strength control, all NaCl concentrations tested (up to 550 mM)): > 60%

Molecule: CN [methylamine]
Inhibition of MBL/MASP-1 binding (in words) [1]: inhibitors

Molecule: CCN [ethylamine]
Inhibition of MBL/MASP-1 binding (in words) [1]: inhibitors

IC50 ([1]; SPR, MASP-1 100 nM premixed with inhibitor, 25° C., three independent experiments): 49 mM and ~50 mM
IC50 [2]: 25 mM and ~25 mM
Molecule: NCCCC[C@H](N)C(=O)O [lysine]

B1: MASP-1: full-size MBL-associated serine protease 1 (protein, UniProt Q8CHN8 1-704, looked up)
chain: MRFLSFRRLLLYHVLCLTLTEVSAHTVELNEMFGQIQSPGYPDSYPSDSEVTWNITVPEGFRVQLYFMHFNLESSYLCEYDYVKVETEDQVLATFCGRETTDTEQTPGQEVVLSPGSFMSVTFRSDFSNEERFTGFDAHYMAVDVDECKEREDEELSCDHYCHNYIGGYYCSCRFGYILHTDNRTCRVECSGNLFTQRTGTITSPDYPNPYPKSSECSYTIDLEEGFMVTLQFEDIFDIEDHPEVPCPYDYIKIKAGSKVWGPFCGEKSPEPISTQSHSIQILFRSDNSGENRGWRLSYRAAGNECPKLQPPVYGKIEPSQAVYSFKDQVLISCDTGYKVLKDNEVMDTFQIECLKDGAWSNKIPTCKIVDCGVPAVLKHGLVTFSTRNNLTTYKSEIRYSCQQPYYKMLHNTTGVYTCSAHGTWTNEVLKRSLPTCLPVCGLPKFSRKHISRIFNGRPAQKGTTPWIAMLSQLNGQPFCGGSLLGSNWVLTAAHCLHHPLDPEEPILHNSHLLSPSDFKIIMGKHWRRRSDEDEQHLHVKHIMLHPLYNPSTFENDLGLVELSESPRLNDFVMPVCLPEHPSTEGTMVIVSGWGKQFLQRLPENLMEIEIPIVNYHTCQEAYTPLGKKVTQDMICAGEKEGGKDACAGDSGGPMVTKDAERDQWYLVGVVSWGEDCGKKDRYGVYSYIYPNKDWIQRVTGVRN
modifications: full-length
Kd (MBL): 0.01 to 0.1 µM
